Results as given in patent publication US20220332758A1, “PEPTIDE-BASED COMPOSITIONS AND METHODS FOR TREATING ALZHEIMER'S DISEASE” (Board of Regents, The Universityof Texas System, priority 2019, published 2022).
Entries after “also recorded” stand apart in the source; their conditions may differ.

Key:
[1] = target: T1, latent human 20S proteasome (Homo sapiens, UniProt P25787+P60900); assay: Chymotrypsin-like (ChT-L) activity of purified latent human 20S proteasome, Suc-LLVY-AMC substrate; format: biochemical; settings: for activation of ChT-L activity of 20S proteasome (in words): in vitro, latent human 20S
T1 construct: purified from erythrocytes; purchased Boston Biochem, Inc. or Enzo Life Sciences, Inc; host or cells: human erythrocytes
Procedure: Determination of Proteasome Activity. Human housekeeping core (20S) proteasome purified from erythrocytes was purchased from Boston Biochem, Inc. (Cambridge, Mass.) or from Enzo Life Sciences, Inc. (Farmingdale, N.Y.). […] The stock proteasome was diluted to 0.2 mg/mL working solution in “dilution buffer” (50 mM Tris/HCl, pH 8, 20% glycerol). The following model peptide substrates, releasing fluorescent 7-amino-4-methylcoumarin (AMC) reporter group after cleavage, were used: succinyl-LeuLeuValTyr-AMC (SEQ ID NO: 14) (for the ChT-L peptidase; SucLLVY-AMC; Bachem Bioscience Inc., Philadelphia, Pa.), butoxycarbonyl-LeuArgArg-AMC (T-L; Bachem Bioscience Inc., Philadelphia, Pa.) and carbobenzoxy-LeuLeuGlu-AMC (PGPH; Enzo Life Sciences Inc., Farmingdale, N.Y.). The substrates were used at concentration of 50 μM (ChT-L) or 100 μM (T-L, PGPH). Free AMC (Sigma-Aldrich, St. Louis, Mo.) was used as the standard. […] The TAT peptides, Rpt peptides (except Rpt6) and the peptide substrates were dissolved in anhydrous dimethylsulfoxide (DMSO; Sigma-Aldrich, St. Louis, Mo.) and such stock solutions were stored at −20° C. The total concentration of DMSO in final reaction mixtures never exceeded 3% (vol/vol). The Trp (tryptophan)-containing Rpt6 peptide was dissolved in ultrapure water and stored at −20° C., protected from light. The reaction was carried out in 96-well plates, in 100 μL of reaction mixture that consisted of 45 mM Tris/HCl, pH 8, 100 mM KCl, 1 mM EDTA (reaction buffer) and a fluorogenic peptide substrate, to which 200 ng (nearly […]) of proteasome were added. […] The proteasome was preincubated with a substrate for 10 min at room temperature, then 1 μL of DMSO or a desired concentration of a TAT peptide in 1 μL of DMSO were added. After mixing, the plate was transferred to a Fluoroskan Ascent plate reader (Thermo Fisher Scientific Inc., Waltham, Mass.) for 1 h (37° C.), with fluorescence readouts once per minute. To test the competition with Rpt derived peptides, the Rpt peptide (1 μM) was added before the TAT peptide to the reaction mixture. The reaction rates were calculated from a linear segment of kinetic curves constructed from measurements in 1-min intervals. Reaction rates were calculated using a linear fit performed with the Slope Analyser and Enzyme Kinetics applications launched within Origin Pro 2019 (OriginLab Corporation, Northampton, Mass.). […] The data are presented as mean±SD from at least three independent experiments.
Statistical Analysis. Experiments were performed at least in three independent replicates. The results are presented as a mean±SD. A two-tailed t-test was applied to compare the means. The comparisons were allowing for unequal variances with a Welch correction. Abundance of proteasome conformers was compared with the chi squared test and two-sample proportion test. A significance level was set at 0.05. Statistical analysis was performed using statistical procedures offered by OriginPro 2019 (OriginLabs, Northampton, Mass.). Reaction rates were calculated from a smoothed linear segment of kinetic traces using OriginPro 2019. Response curves (activity vs. compound concentration) were fitted with a nonlinear fitting application of OriginPro 2019. The AC50 and maximum activation fold was calculated based on the equations implemented to fit the response curves.

[2] = target: T2, latent 20S core proteasome, T-L peptidase (Homo sapiens, UniProt P25787+P60900); assay: Trypsin-like (T-L) peptidase activity of the core proteasome; format: biochemical
T2 construct: purified from erythrocytes; purchased Boston Biochem, Inc. or Enzo Life Sciences, Inc; host or cells: human erythrocytes
Procedure: Determination of Proteasome Activity. Human housekeeping core (20S) proteasome purified from erythrocytes was purchased from Boston Biochem, Inc. (Cambridge, Mass.) or from Enzo Life Sciences, Inc. (Farmingdale, N.Y.). Multiple batches of the proteasomes were used and performed reproducibly. The stock proteasome was diluted to 0.2 mg/mL working solution in “dilution buffer” (50 mM Tris/HCl, pH 8, 20% glycerol). The following model peptide substrates, releasing fluorescent 7-amino-4-methylcoumarin (AMC) reporter group after cleavage, were used: succinyl-LeuLeuValTyr-AMC (SEQ ID NO: 14) (for the ChT-L peptidase; SucLLVY-AMC; Bachem Bioscience Inc., Philadelphia, Pa.), butoxycarbonyl-LeuArgArg-AMC (T-L; Bachem Bioscience Inc., Philadelphia, Pa.) and carbobenzoxy-LeuLeuGlu-AMC (PGPH; Enzo Life Sciences Inc., Farmingdale, N.Y.). […] After mixing, the plate was transferred to a Fluoroskan Ascent plate reader (Thermo Fisher Scientific Inc., Waltham, Mass.) for 1 h (37° C.), with fluorescence readouts once per minute. […] The reaction rates were calculated from a linear segment of kinetic curves constructed from measurements in 1-min intervals. Reaction rates were calculated using a linear fit performed with the Slope Analyser and Enzyme Kinetics applications launched within Origin Pro 2019 (OriginLab Corporation, Northampton, Mass.). […]

Row | Compound | AC50 ([1]; 20S proteasome AC50, Table 1, ChT-L activity, Suc-LLVY-MCA, purified human housekeeping 20S) [nM] | AC50 ([1]; AC50 [nM] ± SE, Table 3, purified 20S proteasome in Tris/HCl buffer pH 8, ChT-L model substrate) [nM] | activation of ChT-L activity of 20S proteasome (in words) [1] | effect on trypsin-like (T-L) activity [2] | activation of ChT-L activity of 20S proteasome (in words) ([1]; listed as Tat1-Den) | activation of ChT-L activity of 20S proteasome (in words) ([1]; listed as Tat-Den)
1 | N=C(N)NCCCC(NC(=O)CN)C(=O)NC(CCCCN)C(=O)NC(CCCCN)C(=O)NC(CCCNC(=N)N)C(=O)NC(CCCNC(=N)N)C(=O)NC(CCC(N)=O)C(=O)N1Cc2ccccc2C[C@H]1C(=O)N1C(C(=O)NC(CCCNC(N)N)C(=O)N2CCCC2C(=O)NC(CO)C(=O)O)CC2CCCCC21 (some centres unmarked) [(5), GRKKRRQ-TOD-RPS] | 221 | 220 ± 89 | strongly enhance | weak inhibitory effects; also recorded: did not seem to significantly affect | – | –
2 | NCCCCC(N)C(=O)NC(CCCCN)C(=O)NC(CCCCN)C(=O)Nc1cc(NC(=O)C(CCCCN)NC(=O)C(CCCCN)NC(=O)C(N)CCCCN)cc(C(=O)NC(CCCCN)C(=O)NC(CCCCN)C(=O)NC(CCCCN)C(=O)O)c1 (centres unmarked) [(8)] | – | – | one of the highest activation folds for the 20S core and one of the lowest AC50; also recorded: highest fold of activation potential and a low AC50 | weak inhibitory effects; also recorded: did not seem to significantly affect | one of the best proteasome activators | strongly enhance
